Source: PubChem BioAssay AID2060499 (Molecular Pharmacology Branch, DTP, NCI, 2025)

System: 777334-354-R2-J4-PDC tumor spheroids with HUVEC/MSC, viability
Test: Anticancer human tumor 777334-354-R2-J4-PDC patient-derived pancreatic adenocarcinoma cell line growth inhibition [GQUAD]
Details: for IC50: curve of first compound; for viability, T/C: stronger effect = lower value
Procedure, shortened: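 Tumor cells were grown as complex spheroids with HUVEC endothelial cells and mesenchymal stem cells as stroma. G-quadruplex stabilizers were combined with targeted agents over half-log dilutions from near the clinical Cmax, or from 10 microM.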

[1] = second compound 0.0316 µM, first compound 0.0316 µM
[2] = second compound 0.0316 µM, first compound 0.1 µM
[3] = second compound 0.0316 µM, first compound 0.316 µM
[4] = second compound 0.0316 µM, first compound 1 µM
[5] = second compound 0.0316 µM, first compound 3.16 µM
[6] = second compound 0.0316 µM, first compound 10 µM
[7] = second compound 0.1 µM, first compound 0.0316 µM
[8] = second compound 0.1 µM, first compound 0.1 µM
[9] = second compound 0.1 µM, first compound 0.316 µM
[10] = second compound 0.1 µM, first compound 1 µM
[11] = second compound 0.1 µM, first compound 3.16 µM
[12] = second compound 0.1 µM, first compound 10 µM
[13] = second compound 0.316 µM, first compound 0.0316 µM
[14] = second compound 0.316 µM, first compound 0.1 µM
[15] = second compound 0.316 µM, first compound 0.316 µM
[16] = second compound 0.316 µM, first compound 1 µM
[17] = second compound 0.316 µM, first compound 3.16 µM
[18] = second compound 0.316 µM, first compound 10 µM
[19] = second compound 1 µM, first compound 0.0316 µM
[20] = second compound 1 µM, first compound 0.1 µM
[21] = second compound 1 µM, first compound 0.316 µM
[22] = second compound 1 µM, first compound 1 µM
[23] = second compound 1 µM, first compound 3.16 µM
[24] = second compound 1 µM, first compound 10 µM
[25] = second compound 3.16 µM, first compound 0.0316 µM
[26] = second compound 3.16 µM, first compound 0.1 µM
[27] = second compound 3.16 µM, first compound 0.316 µM
[28] = second compound 3.16 µM, first compound 1 µM
[29] = second compound 3.16 µM, first compound 3.16 µM
[30] = second compound 3.16 µM, first compound 10 µM
[31] = second compound 10 µM, first compound 0.0316 µM
[32] = second compound 10 µM, first compound 0.1 µM
[33] = second compound 10 µM, first compound 0.316 µM
[34] = second compound 10 µM, first compound 1 µM
[35] = second compound 10 µM, first compound 3.16 µM
[36] = second compound 10 µM, first compound 10 µM
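Note: spheroids exposed to compounds for 7 days before readout.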

**Q.** How did the IC50 (second compound 0.0316 µM) turn out when `CC(C)n1c(=O)n(C)c2cnc3cc(F)c(-c4ccc(OCCCN5CCCCC5)nc4)cc3c21` + Cc1[nH]c2ccc(F)cc2c1-c1nc2c3cccnc3c3ncccc3c2[nH]1 was run?
**A.** > 10 µM

**Q.** And the IC50 (second compound 0.1 µM)?
**A.** > 10 µM

**Q.** What about the IC50 (second compound 0.316 µM) of the same compound?
**A.** > 10 µM

**Q.** And the IC50 (second compound 1 µM)?
**A.** > 10 µM

**Q.** And the IC50 (second compound 3.16 µM)?
**A.** < 0.0316 µM

**Q.** And the IC50 (second compound 10 µM)?
**A.** < 0.0316 µM

**Q.** What about the viability, T/C [1] of the same compound?
**A.** 106%

**Q.** And the viability, T/C [2]?
**A.** 108%

**Q.** And the viability, T/C [3]?
**A.** 113%

**Q.** And the viability, T/C [4]?
**A.** 115%

**Q.** And the viability, T/C [5]?
**A.** 115%

**Q.** What about the viability, T/C [6] of the same compound?
**A.** 96%

**Q.** And the viability, T/C [7]?
**A.** 105%

**Q.** What about the viability, T/C [8] of the same compound?
**A.** 89.5%

**Q.** What about the viability, T/C [9] of the same compound?
**A.** 131%

**Q.** And the viability, T/C [10]?
**A.** 103%

**Q.** And the viability, T/C [11]?
**A.** 118%

**Q.** And the viability, T/C [12]?
**A.** 98%

**Q.** And the viability, T/C [13]?
**A.** 101%

**Q.** And the viability, T/C [14]?
**A.** 99.5%

**Q.** And the viability, T/C [15]?
**A.** 90.3%

**Q.** And the viability, T/C [16]?
**A.** 110%

**Q.** And the viability, T/C [17]?
**A.** 99.1%

**Q.** What about the viability, T/C [18] of the same compound?
**A.** 93.5%

**Q.** What about the viability, T/C [19] of the same compound?
**A.** 90.8%

**Q.** And the viability, T/C [20]?
**A.** 84.7%

**Q.** And the viability, T/C [21]?
**A.** 90.6%

**Q.** And the viability, T/C [22]?
**A.** 101%

**Q.** And the viability, T/C [23]?
**A.** 93.8%

**Q.** What about the viability, T/C [24] of the same compound?
**A.** 70.8%

**Q.** What about the viability, T/C [25] of the same compound?
**A.** 30.8%

**Q.** What about the viability, T/C [26] of the same compound?
**A.** 50.4%

**Q.** What about the viability, T/C [27] of the same compound?
**A.** 40%

**Q.** And the viability, T/C [28]?
**A.** 33.1%

**Q.** What about the viability, T/C [29] of the same compound?
**A.** 28.5%

**Q.** And the viability, T/C [30]?
**A.** 19.9%

**Q.** What about the viability, T/C [31] of the same compound?
**A.** 28.7%

**Q.** And the viability, T/C [32]?
**A.** 25.2%

**Q.** And the viability, T/C [33]?
**A.** 41.9%

**Q.** What about the viability, T/C [34] of the same compound?
**A.** 28.4%

**Q.** And the viability, T/C [35]?
**A.** 27.1%

**Q.** And the viability, T/C [36]?
**A.** 13.5%

**Q.** How did the IC50 (second compound 0.0316 µM) turn out when `CC(C)(O)C1CCC(Nc2ccc3ncc(-c4cccc(C(F)(F)F)c4)n3n2)CC1` (stereo unspecified) + CN(C)c1ccc(Nc2c3ccc(NC(=O)CCN4CCCC4)cc3nc3cc(NC(=O)CCN4CCCC4)ccc23)cc1 was run?
**A.** 0.849 µM

**Q.** And the IC50 (second compound 0.1 µM)?
**A.** 0.921 µM

**Q.** What about the IC50 (second compound 0.316 µM) of the same compound?
**A.** 1.34 µM

**Q.** What about the IC50 (second compound 1 µM) of the same compound?
**A.** 1.34 µM

**Q.** And the IC50 (second compound 3.16 µM)?
**A.** 1.06 µM

**Q.** And the IC50 (second compound 10 µM)?
**A.** 0.669 µM

**Q.** And the viability, T/C [1]?
**A.** 99.9%

**Q.** What about the viability, T/C [2] of the same compound?
**A.** 90.2%

**Q.** What about the viability, T/C [3] of the same compound?
**A.** 90.2%

**Q.** And the viability, T/C [4]?
**A.** 43.4%

**Q.** What about the viability, T/C [5] of the same compound?
**A.** 32.3%

**Q.** And the viability, T/C [6]?
**A.** 35.5%

**Q.** And the viability, T/C [7]?
**A.** 98.2%

**Q.** And the viability, T/C [8]?
**A.** 86.5%

**Q.** What about the viability, T/C [9] of the same compound?
**A.** 81.4%

**Q.** And the viability, T/C [10]?
**A.** 47.4%

**Q.** What about the viability, T/C [11] of the same compound?
**A.** 31.3%

**Q.** And the viability, T/C [12]?
**A.** 31.5%

**Q.** What about the viability, T/C [13] of the same compound?
**A.** 89%

**Q.** What about the viability, T/C [14] of the same compound?
**A.** 68.1%

**Q.** What about the viability, T/C [15] of the same compound?
**A.** 79.7%

**Q.** And the viability, T/C [16]?
**A.** 55%

**Q.** What about the viability, T/C [17] of the same compound?
**A.** 36.6%

**Q.** And the viability, T/C [18]?
**A.** 33.9%

**Q.** What about the viability, T/C [19] of the same compound?
**A.** 78.9%

**Q.** What about the viability, T/C [20] of the same compound?
**A.** 89.9%

**Q.** What about the viability, T/C [21] of the same compound?
**A.** 81.4%

**Q.** What about the viability, T/C [22] of the same compound?
**A.** 56.3%

**Q.** And the viability, T/C [23]?
**A.** 29.6%

**Q.** What about the viability, T/C [24] of the same compound?
**A.** 33.3%

**Q.** And the viability, T/C [25]?
**A.** 76.8%

**Q.** What about the viability, T/C [26] of the same compound?
**A.** 82.3%

**Q.** What about the viability, T/C [27] of the same compound?
**A.** 80.5%

**Q.** And the viability, T/C [28]?
**A.** 51.2%

**Q.** What about the viability, T/C [29] of the same compound?
**A.** 27.9%

**Q.** What about the viability, T/C [30] of the same compound?
**A.** 27%

**Q.** What about the viability, T/C [31] of the same compound?
**A.** 83.9%

**Q.** What about the viability, T/C [32] of the same compound?
**A.** 77.2%

**Q.** What about the viability, T/C [33] of the same compound?
**A.** 67.8%

**Q.** And the viability, T/C [34]?
**A.** 41.6%

**Q.** And the viability, T/C [35]?
**A.** 19.1%

**Q.** What about the viability, T/C [36] of the same compound?
**A.** 19.4%

**Q.** How did the IC50 (second compound 0.0316 µM) turn out when `CC(C)n1c(=O)n(C)c2cnc3cc(F)c(-c4ccc(OCCCN5CCCCC5)nc4)cc3c21` + Cc1cnc(CNC(=O)c2c(=O)c3ccc(N4CCCN(C)CC4)nc3n3c2sc2ccccc23)cn1 was run?
**A.** > 10 µM

**Q.** What about the IC50 (second compound 0.1 µM) of the same compound?
**A.** > 10 µM

**Q.** And the IC50 (second compound 0.316 µM)?
**A.** > 10 µM

**Q.** What about the IC50 (second compound 1 µM) of the same compound?
**A.** > 10 µM

**Q.** And the IC50 (second compound 3.16 µM)?
**A.** > 10 µM

**Q.** And the IC50 (second compound 10 µM)?
**A.** > 10 µM

**Q.** What about the viability, T/C [1] of the same compound?
**A.** 85.8%

**Q.** What about the viability, T/C [2] of the same compound?
**A.** 84%

**Q.** And the viability, T/C [3]?
**A.** 93.9%

**Q.** What about the viability, T/C [4] of the same compound?
**A.** 91%

**Q.** And the viability, T/C [5]?
**A.** 103%

**Q.** What about the viability, T/C [6] of the same compound?
**A.** 85.6%

**Q.** And the viability, T/C [7]?
**A.** 78.3%

**Q.** What about the viability, T/C [8] of the same compound?
**A.** 74.3%

**Q.** What about the viability, T/C [9] of the same compound?
**A.** 89.1%

**Q.** And the viability, T/C [10]?
**A.** 73.6%

**Q.** And the viability, T/C [11]?
**A.** 74.2%

**Q.** What about the viability, T/C [12] of the same compound?
**A.** 91.4%

**Q.** And the viability, T/C [13]?
**A.** 71.4%

**Q.** And the viability, T/C [14]?
**A.** 73.2%

**Q.** And the viability, T/C [15]?
**A.** 73.8%

**Q.** What about the viability, T/C [16] of the same compound?
**A.** 84.7%

**Q.** And the viability, T/C [17]?
**A.** 76%

**Q.** And the viability, T/C [18]?
**A.** 74.8%

**Q.** And the viability, T/C [19]?
**A.** 73.3%

**Q.** What about the viability, T/C [20] of the same compound?
**A.** 71.6%

**Q.** And the viability, T/C [21]?
**A.** 66.9%

**Q.** And the viability, T/C [22]?
**A.** 72.7%

**Q.** And the viability, T/C [23]?
**A.** 85.7%

**Q.** And the viability, T/C [24]?
**A.** 73.7%

**Q.** What about the viability, T/C [25] of the same compound?
**A.** 57.6%

**Q.** And the viability, T/C [26]?
**A.** 62.8%

**Q.** And the viability, T/C [27]?
**A.** 66.5%

**Q.** And the viability, T/C [28]?
**A.** 62.1%

**Q.** And the viability, T/C [29]?
**A.** 78.6%

**Q.** What about the viability, T/C [30] of the same compound?
**A.** 63.4%

**Q.** What about the viability, T/C [31] of the same compound?
**A.** 57.4%

**Q.** And the viability, T/C [32]?
**A.** 52.9%

**Q.** And the viability, T/C [33]?
**A.** 61.6%

**Q.** What about the viability, T/C [34] of the same compound?
**A.** 62%

**Q.** What about the viability, T/C [35] of the same compound?
**A.** 69%

**Q.** What about the viability, T/C [36] of the same compound?
**A.** 64.1%
